Experiments:
[1] = system: HEI-OC1 cells; test: Cellular internalization study of C6-cHy-NPs with pathway inhibitors and over time; assay type: cell-based; settings: 40 μg/mL inhibitor, 1 h pre-incubation
Method: First, blank cHy-NPs (cHy-NPs, without FL or HK encapsulation) were prepared as described below. In, 1 mL colloidal solution of cHy-NPs, 1 mg coumarin-6 (C-6) was added and the mixture was stirred at 200 rpm overnight at room temperature. The NP solution was then centrifuged at 2000 rpm for 5 min to remove unloaded C-6. The supernatant containing C-6-cHy-NPs was transferred to a fresh microcentrifuge tube. The HEI-OC1 (House Ear Institute-Organ of Corti 1) cells were seeded in 96 well plate (10000 cells per well) overnight. After washing with fresh growth media, the media (100 μL) containing 40 μg/mL CPZ, MβCD, GNT, or AML was added to separate columns (2 columns kept untreated as a control group). After 1 h of incubation at 33° C. (5% CO2), 2.5 μL of C6-cHy-NPs (10× diluted with media) were added to each well. The plate was incubated for 4 h and the cells were washed using PBS. After adding fresh PBS, the fluorescence intensity of each well was recorded using a multi-well plate fluorescence spectrophotometer (Synergy 2, BioTek, USA) at λex/em 460/505. In another experiment to confirm the effect of various inhibitors, the cells (20000 per well) were seeded overnight, and incubated with different concentrations (0, 2.5, 5, 10, 20, 30, 40, 50, and 75 μg/mL) of MβCD, GNT, or AML. After treatment, incubation, and washing, the fluorescence intensity of each well was recorded as described above. Furthermore, to study the time of cellular internalization the cells (20000 per well) were treated with C-6-cHy-NPs (5 μL, 10× diluted), and the fluorescence of the samples was recorded after washing at different time intervals (0.25, 0.5, 1, 2, 3, 4, 5, 6, 8, 10, 24, and 48 h) of incubation. For microscopy analysis, the cells were seeded in a 6 well plate (1×10^5 cells/well) and incubated overnight. The next day, cells were washed and in each well media containing C-6-cHy-NPs was added. At different time intervals (0.5, 1, 2, 3, 4, and 5 h), the cells of a well were washed using PBS and analyzed under the fluorescence microscope using a 20× lens (Revolve, Discover Echo Inc., San Diego, CA, USA) at λex 460 nm. Counterstain Hoechst 33342 (1 μg/mL, 10 min incubation in the dark, λex 350 nm) was used.

[2] = system: caspase 3/7; test: Caspase 3/7 activation in CisPt-exposed cells (FLICA, fluorescence microscopy), Example 1; assay type: cell-based; settings: CisPt-exposed HEI-OC1 cells
Method: Novel dual stimuli-responsive nanoformulations have been investigated for the synthesis of ROS-responsive polymers, and thermo-responsive polymers and their characterization using ^1H NMR. Drug loaded NCs comprising BUC and/or DLT in micelles of PPS-mPEG2000 were prepared by nanoprecipitation methods. The BUC-PPS-mPEG2000-NCs and DLT-PPS-mPEG2000-NCs were characterized using DLS and NTA and TEM images. The EE % and DL % of NCs were determined using HPLC and Ellman's assays. The long-term storage stability over two months was checked by using DLS for size and PDI. In vitro assessments were performed on the HEIOC1 cell lines for MTT and Live-dead cell assays for biocompatibility and cellular uptake analysis, respectively. The cytoprotective effect of BUC-NCs, DLT-NCs and BUC/DLT-PPS-mPEG2000-NCs, were studied after treating with various regimens and different concentration with and without cisplatin. The ROS-Scavenging effect nanoformulation was confirmed by the DCFH-DA assay, and FLICA assays. The final formulation, named NanoSensoGel, comprising a combination of a thermo-responsive P407 hydrogel, and the ROS-responsive BUC/DLT loaded PPS-mPEG2000-NCs, was characterized for its bio-responsiveness, a novel method was established to perform the in vitro drug release, and release kinetics mechanism were studied for dual drug release.

[3] = In vitro drug release kinetics from thermoresponsive hydrogel (Korsmeyer-Peppas model); assay type: physicochemical; settings: PBS pH 7.4; for release from the hydrogel: in 48 h at 25° C.; for maximum release from the hydrogel: in one month at 37° C.
Method: Two 24 well plates were taken equipped with 6.5 mm inserts (Transwell®, Costar, Corning, NY, USA) having 8 µm pores polycarbonate support membrane six in each plate. The developed hydrogel formulations containing FL-cHy-NPs and HK-cHy-NPs were filled in the inserts (n=3, in each plate and each formulation). One plate was placed at 37° C. while the other one was kept at 25° C. After 30 min, the receiver media (1 mL, PBS pH 7.4) was filled in each well-containing insert. Other wells were filled with deionized water to maintain humidity in the plate. […] The drug content (FL and HK) was extracted using DCM; solvent-solvent extraction. After evaporating the DCM, the extracted FL and HK content was dissolved in methanol (100 μL, 100% LC-MS grade). The drug quantification of FL and HK in each sample was done using HPLC using the same procedure described above. The release kinetics of FL and HK from both hydrogels were calculated using the Korsmeyer-Peppas model (eq 7). where, Mt is the mass of the drug released at time t; […]

[4] = system: neuromast hair cells; test: Otoprotection studies on zebrafish (cisplatin ototoxicity); assay type: in vivo; settings: 5-6 dpf fish; 33, 17, 2 mM alone or 17+17, 8.5+8.5, 3+3 mM; cisplatin 400 mM, 6 hours
Method: Fish were maintained at 28.5° C. in E3 media with a 14-hour light/10-hour dark cycle. Otoprotection studies were performed in 5-6 dpf wild type (TuAB) fish as previously described [2]. Briefly, fish were pre-incubated for one hour in E3 media containing FL, HK or FL+HK and then co-incubated for 6 hours with the corresponding cytoprotective molecules and clinical cisplatin 400 mM. Concentrations were as follow: FL or HK=33 mM, 17 mM and 2 mM; FL+HK=17+17 mM, 8.5+8.5 mM and 3+3 mM. Fish were also incubated with empty NPs as control. After the treatment, fish were transferred to fresh E3 media for one hour to recover, followed by fixation (4% PFA) and processing for confocal imaging. For the detection of neuromast hair cells, fish were immunostained for the hair cell marker, otoferlin (HCS-1, DSHB, 1:200 dilution). Hair cells were manually counted using a Zeiss AxioSkop 2 fluorescence microscope. The neuromasts inspected were part of the cranial system and included the otic, middle, and opercular neuromasts. Ten to twelve fish were used per treatment. Confocal imaging was performed using a Zeiss LSM 700 confocal laser scanning image system. Images were captured at room temperature with automatically set sectioning and processed with ZEN black edition software. Z-stacks are presented as flat Z-projections.

[5] = system: HEI-OC1 cells; test: Intracellular ROS generation (DCFH2-DA); assay type: cell-based
Method: (§1) The HEI-OC1 Cells (10000 cells/well in 96-well plates) were treated with various treatment groups as described above in the cell cytotoxicity study section. The endpoints for ROS generation, apoptosis, and necrosis studies were set up at 24, 36, and 48 h, respectively. For ROS generation study, the cells were washed two times with fresh media and then culture media containing DCFH2DA reagent (10 μM) was added to each well. After 30 min incubation in dark at 33° C. (5% CO2) the cells were washed with PBS three times. Fresh PBS (100 μL) was added and the fluorescence was recorded at λex/em 480/530 nm using a multi-well plate fluorescence spectrophotometer (Synergy 2, BioTek, USA). […] After washing, the fluorescence was recorded at λex/em 480/530 nm using a multi-well plate fluorescence spectrophotometer (Synergy 2, BioTek, USA). […] After 15 min incubation in dark, the fluorescence was recorded at λex/em 530/615 nm using a multi-well plate fluorescence spectrophotometer (Synergy 2, BioTek, USA). The fluorescence microscopy analysis of ROS generation, apoptosis, and necrosis experiments was performed. […] The cells were observed under the fluorescence microscope using a 20× lens at the respective dye fluorescence filter as described above. For HOECHST-33342 λex/em 350/460 nm fluorescence filter was used.

[6] = system: HEI-OC1 cells; test: MitoSOX mitochondrial superoxide assay; assay type: cell-based; settings: MitoSOX fluorescence
[7] = system: HEI-OC1 cells; test: PI staining necrosis / cell death assay; assay type: cell-based; settings: 48 h; pre-treatment then CisPt; CisPt row is CisPt only
Method: as §1

[8] = system: caspase 3/7; test: Caspase 3/7 apoptosis assay; assay type: cell-based; settings: HEI-OC1
Method: as §1

N=C(N)NC(=O)c1nc(Cl)c(N)nc1N [AML, Amiloride]
effect of pathway inhibitor pretreatment on cellular internalization of C6-cHy-NPs [1]: no significant change in the cellular internalization

CC(C)(S)C(=O)N[C@@H](CS)C(=O)O [BUC, bucillamine]
inhibition of caspase 3/7 activation [2]: highly responsible for the inhibition of the caspase 3/7 activation

CN(C)CCCN1c2ccccc2Sc2ccc(Cl)cc21 [CPZ, Chlorpromazine]
effect of pathway inhibitor pretreatment on cellular internalization of C6-cHy-NPs [1]: significantly reduced cellular internalization

Fc1ccc(C(c2ccc(F)cc2)N2CCN(C/C=C/c3ccccc3)CC2)cc1 [FL, Flunarizine]
release from the hydrogel [3]: ~60%
maximum release from the hydrogel [3]: ~50%
protection of neuromast hair cells against cisplatin-induced ototoxicity [4]: prevented hair cell loss

O=c1c(-c2ccc(O)cc2)coc2cc(O)cc(O)c12 [GNT, Genistein]
effect of pathway inhibitor pretreatment on cellular internalization of C6-cHy-NPs [1]: no significant change in the cellular internalization

C=CCc1ccc(O)c(-c2ccc(O)c(CC=C)c2)c1 [HK, Honokiol]
release from the hydrogel [3]: ~60%
maximum release from the hydrogel [3]: ~50%
protection of neuromast hair cells against cisplatin-induced ototoxicity [4]: prevented hair cell loss

O=S([O-])([O-])=S.[Na+].[Na+] [STS, Sodium thiosulphate]
ROS generation compared to CisPt-only treated cells ([5]; 24 h post CisPt addition): did not show a significant ROS generation
ratio of normalized intensities of total cells and DCF-stained cells ([5]; fluorescence microscopy, pre-treatment then CisPt, CisPt row is CisPt only): 1.53±0.23
mitochondrial superoxide compared to CisPt-only treated cells [6]: significantly reduced mitochondrial superoxide
ratio of normalized intensities of total cells and PI-stained cells [7]: 2.03±0.02
caspase 3/7 activation compared to CisPt only treated cells [8]: significantly reduced signals of caspase 3/7 activation

methyl-β-cyclodextrin [MβCD]
effect of pathway inhibitor pretreatment on cellular internalization of C6-cHy-NPs [1]: no significant change in the cellular internalization
